In patent US9650379B2 (CHONG KUN DANG PHARMACEUTICAL CORP., priority 2013, dated 2017):

Legend:
HDAC6 human recombinant = biological target: T1, HDAC6 human recombinant (Homo sapiens, UniProt Q9UBN7); assay: Inhibition of HDAC6 activity (fluorimetric assay); assay type: biochemical; conditions: test concentrations 0.1, 1, 10, 100 and 1000 nM; 37° C., 60 minutes
T1 construct: purchased Calbiochem 382180
T1 sequence (Q9UBN7 1-1215): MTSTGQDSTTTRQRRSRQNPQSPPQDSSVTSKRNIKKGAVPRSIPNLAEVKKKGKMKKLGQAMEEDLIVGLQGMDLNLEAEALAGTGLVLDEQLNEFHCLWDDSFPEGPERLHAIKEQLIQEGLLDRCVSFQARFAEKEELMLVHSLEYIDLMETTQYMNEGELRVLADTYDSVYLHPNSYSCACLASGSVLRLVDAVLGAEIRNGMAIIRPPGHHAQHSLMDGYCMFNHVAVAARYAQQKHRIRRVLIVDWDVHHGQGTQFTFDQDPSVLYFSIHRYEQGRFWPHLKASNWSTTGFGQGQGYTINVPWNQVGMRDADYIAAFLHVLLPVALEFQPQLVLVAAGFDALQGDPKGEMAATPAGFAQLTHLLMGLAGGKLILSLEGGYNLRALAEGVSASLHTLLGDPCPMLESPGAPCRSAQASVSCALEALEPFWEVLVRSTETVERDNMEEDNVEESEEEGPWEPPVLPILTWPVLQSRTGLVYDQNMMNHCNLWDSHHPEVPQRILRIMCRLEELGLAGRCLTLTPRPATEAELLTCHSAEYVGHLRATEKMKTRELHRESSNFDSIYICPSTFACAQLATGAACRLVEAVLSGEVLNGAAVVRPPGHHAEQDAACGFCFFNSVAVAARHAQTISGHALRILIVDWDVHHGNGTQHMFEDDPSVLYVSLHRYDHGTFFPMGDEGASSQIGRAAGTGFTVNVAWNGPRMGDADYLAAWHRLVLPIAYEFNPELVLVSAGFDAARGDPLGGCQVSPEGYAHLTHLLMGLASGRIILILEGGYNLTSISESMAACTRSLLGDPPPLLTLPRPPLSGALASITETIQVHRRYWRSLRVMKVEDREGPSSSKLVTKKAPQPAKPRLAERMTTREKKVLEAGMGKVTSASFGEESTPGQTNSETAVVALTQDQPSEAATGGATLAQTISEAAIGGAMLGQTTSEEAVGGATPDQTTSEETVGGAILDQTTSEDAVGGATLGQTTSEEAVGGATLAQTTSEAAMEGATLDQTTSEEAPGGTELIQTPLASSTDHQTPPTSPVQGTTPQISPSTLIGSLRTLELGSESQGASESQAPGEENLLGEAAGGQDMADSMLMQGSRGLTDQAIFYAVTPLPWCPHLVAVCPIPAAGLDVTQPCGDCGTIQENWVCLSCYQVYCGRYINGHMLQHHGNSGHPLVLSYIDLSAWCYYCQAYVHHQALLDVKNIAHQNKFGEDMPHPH
Procedure: (§1) Assays were performed using a HDAC1 fluorimetric drug discovery assay kit (Enzolifesciences: BML-AK511) and a HDAC6 human recombinant (Calbiochem: 382180). The assay mixture of the kit was treated with a test compound at concentrations of 100, 1000 and 10000 nM for HDAC1 assay and concentrations of 0.1, 1, 10, 100 and 1000 nM for HDAC6 assay. The treated assay mixture was allowed to react at 37° C. for 60 minutes, and then was treated with a developer and allowed to stand at 37° C. for 30 minutes, followed by quantification of the fluorescence.

HDAC1 = biological target: T2, HDAC1 (Homo sapiens, UniProt Q13547); assay: Inhibition of HDAC1 activity (HDAC1 fluorimetric drug discovery assay kit); assay type: biochemical; conditions: test concentrations 100, 1000 and 10000 nM; 37° C., 60 minutes
T2 construct: purchased Enzolifesciences BML-AK511
T2 sequence (Q13547 whole entry): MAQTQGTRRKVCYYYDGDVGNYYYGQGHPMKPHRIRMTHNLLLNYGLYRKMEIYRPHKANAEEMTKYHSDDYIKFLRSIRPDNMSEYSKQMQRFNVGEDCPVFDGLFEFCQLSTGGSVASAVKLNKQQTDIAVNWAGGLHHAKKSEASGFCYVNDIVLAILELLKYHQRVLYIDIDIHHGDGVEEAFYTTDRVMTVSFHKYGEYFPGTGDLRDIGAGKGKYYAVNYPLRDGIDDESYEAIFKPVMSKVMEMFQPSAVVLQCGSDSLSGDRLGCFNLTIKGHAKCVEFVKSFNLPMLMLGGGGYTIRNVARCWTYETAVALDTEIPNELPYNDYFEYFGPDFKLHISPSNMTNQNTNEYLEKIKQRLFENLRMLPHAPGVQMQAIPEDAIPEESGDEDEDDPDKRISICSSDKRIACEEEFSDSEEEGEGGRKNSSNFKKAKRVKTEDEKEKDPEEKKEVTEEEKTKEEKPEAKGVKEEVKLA
Procedure: as §1

Row | IC50 (HDAC6 human recombinant) | IC50 (HDAC1) | Compound
1 | 7.6 nM | 1060 nM | O=C(NO)c1ccc(Cn2ccc3cc(C4CCN(C(=O)c5cccc(CN6CCOCC6)c5)CC4)cnc32)cc1 [Compound 895, N-hydroxy-4-((5-(1-(3-(morpholinomethyl)benzoyl)piperidin-4-yl)-1H-pyrrolo[2,3-b]pyridin-1-yl)methyl)benzamide]
2 | 3.7 nM | 200 nM | CC(O)(CO)CN1CCC(c2ccnc3c2ccn3Cc2ccc(C(=O)NO)cc2)CC1 (centres unmarked) [Compound 945, 4-((4-(1-(2,3-dihydroxy-2-methylpropyl)piperidin-4-yl)-1H-pyrrolo[2,3-b]pyridin-1-yl)methyl)-N-hydroxybenzamide]
3 | 18.5 nM | 690 nM | O=C(NO)c1ccc(Cn2ccc3cc(C4CCN(Cc5ccc(-n6cnnc6)cc5)CC4)cnc32)cc1 [Compound 874, 4-((5-(1-(4-(4H-1,2,4-triazol-4-yl)benzyl)piperidin-4-yl)-1H-pyrrolo[2,3-b]pyridin-1-yl)methyl)-N-hydroxybenzamide]
4 | 17 nM | 1120 nM | CC(C)(C)OC(=O)N1CC=C(c2nccc3c2ccn3Cc2ccc(C(=O)NO)cc2)CC1 [Compound 757, tert-butyl 4-(1-(4-(hydroxycarbamoyl)benzyl)-1H-pyrrolo[3,2-c]pyridin-4-yl)-5,6-dihydropyridine-1(2H)-carboxylate]
5 | 5 nM | 310 nM | CN1CC=C(c2ccnc3c2ccn3Cc2ccc(C(=O)NO)cc2)CC1 [Compound 723, N-hydroxy-4-((4-(1-methyl-1,2,3,6-tetrahydropyridin-4-yl)-1H-pyrrolo[2,3-b]pyridin-1-yl)methyl)benzamide]
6 | 34 nM | 860 nM | O=C(NO)c1ccc(Cn2ccc3ccc(C4CCN(Cc5cccnc5)CC4)nc32)cc1 [Compound 992, N-hydroxy-4-((6-(1-(pyridin-3-ylmethyl)piperidin-4-yl)-1H-pyrrolo[2,3-b]pyridin-1-yl)methyl)benzamide]
7 | 21 nM | 1950 nM | O=C(NO)c1ccc(Cn2ccc3c(-c4ccc(F)cc4F)ccnc32)cc1 [Compound 658, 4-((4-(2,4-difluorophenyl)-1H-pyrrolo[2,3-b]pyridin-1-yl)methyl)-N-hydroxybenzamide]
8 | 1 nM | 500 nM | O=C(NO)c1ccc(Cn2ccc3cc(N4CCC5(CCN(Cc6cccnc6)C5)CC4)cnc32)cc1 [Compound 1101, N-hydroxy-4-((5-(2-(pyridin-3-ylmethyl)-2,8-diazaspiro[4.5]decan-8-yl)-1H-pyrrolo[2,3-b]pyridin-1-yl)methyl)benzamide]
9 | 0.26 nM | 382 nM | O=C(NO)c1ccc(Cn2ccc3cc(-c4cccnc4)cnc32)cc1 [Compound 103]
10 | 7.5 nM | 1140 nM | O=C(NO)c1ccc(Cn2ccc3cc(C4CCN(Cc5ccc(CN6CCOCC6)cc5)CC4)cnc32)cc1 [Compound 882, N-hydroxy-4-((5-(1-(4-(morpholinomethyl)benzyl)piperidin-4-yl)-1H-pyrrolo[2,3-b]pyridin-1-yl)methyl)benzamide]
11 | 2 nM | 490 nM | CC(O)(CO)CN1CCC(c2cnc3c(ccn3Cc3ccc(C(=O)NO)cc3)c2)CC1 (centres unmarked) [Compound 946, 4-((5-(1-(2,3-dihydroxy-2-methylpropyl)piperidin-4-yl)-1H-pyrrolo[2,3-b]pyridin-1-yl)methyl)-N-hydroxybenzamide]
12 | 6 nM | 330 nM | COc1cccc(CN2CCC(c3ccnc4c3ccn4Cc3ccc(C(=O)NO)cc3)CC2)c1 [Compound 859, N-hydroxy-4-((4-(1-(3-methoxybenzyl)piperidin-4-yl)-1H-pyrrolo[2,3-b]pyridin-1-yl)methyl)benzamide]
13 | 39 nM | 2740 nM | CC(C)(O)CN1CC=C(c2cnc3c(ccn3Cc3ccc(C(=O)NO)cc3)c2)CC1 [Compound 686, N-hydroxy-4-((5-(1-(2-hydroxy-2-methylpropyl)-1,2,3,6-tetrahydropyridin-4-yl)-1H-pyrrolo[2,3-b]pyridin-1-yl)methyl)benzamide]
14 | 5230 nM | – | COc1ccc(CN2CCC(c3cnc4c(ccn4Cc4ccc(C(=O)NO)cc4)c3)CC2)cn1 [Compound 1098, N-hydroxy-4-((5-(1-((6-methoxypyridin-3-yl)methyl)piperidin-4-yl)-1H-pyrrolo[2,3-b]pyridin-1-yl)methyl)benzamide]
15 | 1.1 nM | 170 nM | CC(C)(O)CN1CC2(CCN(c3ccnc4c3ccn4Cc3ccc(C(=O)NO)cc3)CC2)C1 [Compound 1025, N-hydroxy-4-((4-(2-(2-hydroxy-2-methylpropyl)-2,7-diazaspiro[3.5]nonan-7-yl)-1H-pyrrolo[2,3-b]pyridin-1-yl)methyl)benzamide]
16 | 5 nM | 350 nM | CC(C)(F)C(=O)N1CCC(c2cnc3c(ccn3Cc3ccc(C(=O)NO)cc3)c2)CC1 [Compound 854, 4-((5-(1-(2-fluoro-2-methylpropanoyl)piperidin-4-yl)-1H-pyrrolo[2,3-b]pyridin-1-yl)methyl)-N-hydroxybenzamide]
17 | 37 nM | 3210 nM | CC(C)(C)OC(=O)N1CCC(F)(CN2CCN(c3ccnc4c3ccn4Cc3ccc(C(=O)NO)cc3)CC2)CC1 [Compound 760, tert-butyl 4-fluoro-4-((4-(1-(4-(hydroxycarbamoyl)benzyl)-1H-pyrrolo[2,3-b]pyridin-4-yl)piperazin-1-yl)methyl)piperidine-1-carboxylate]
18 | 7.7 nM | 2680 nM | COc1cccc(CN2[C@H](C)CN(c3cnc4c(ccn4Cc4ccc(C(=O)NO)cc4)c3)C[C@@H]2C)c1 [Compound 1003]
19 | 6 nM | 720 nM | O=C(NO)c1ccc(Cn2ccc3c(N4CCN(C(=O)C5(C(F)(F)F)CCC5)CC4)ccnc32)cc1 [Compound 703, N-hydroxy-4-((4-(4-(1-(trifluoromethyl)cyclobutanecarbonyl)piperazin-1-yl)-1H-pyrrolo[2,3-b]pyridin-1-yl)methyl)benzamide]
20 | 5.6 nM | 600 nM | O=C(NO)c1ccc(Cn2ccc3c(N4CCN(Cc5ccccc5F)CC4)ccnc32)cc1 [Compound 847, 4-((4-(4-(2-fluorobenzyl)piperazin-1-yl)-1H-pyrrolo[2,3-b]pyridin-1-yl)methyl)-N-hydroxybenzamide]
21 | 6.8 nM | 260 nM | O=C(NO)c1ccc(Cn2ccc3c(N4CC5CCC(C4)N5Cc4cccnc4)ccnc32)cc1 [Compound 1019, N-hydroxy-4-((4-(8-(pyridin-3-ylmethyl)-3,8-diazabicyclo[3.2.1]octan-3-yl)-1H-pyrrolo[2,3-b]pyridin-1-yl)methyl)benzamide]
22 | 12.1 nM | 1430 nM | CC(C)(C)CCN1CCN(c2cnc3c(ccn3Cc3ccc(C(=O)NO)cc3)c2)CC1 [Compound 862, 4-((5-(4-(3,3-dimethylbutyl)piperazin-1-yl)-1H-pyrrolo[2,3-b]pyridin-1-yl)methyl)-N-hydroxybenzamide]
23 | 1.8 nM | – | COc1ccc(CN2CC3(CCN(c4cnc5c(ccn5Cc5ccc(C(=O)NO)cc5)c4)CC3)C2)cc1 [Compound 1125, N-hydroxy-4-((5-(2-(4-methoxybenzyl)-2,7-diazaspiro[3.5]nonan-7-yl)-1H-pyrrolo[2,3-b]pyridin-1-yl)methyl)benzamide]
